From patent publication US20100166727A1, “S-Adenosylmethionine And Methylthioadensosine In Chemoprevention And Treatment Of Colon Polyps And Cancer” (UNIVERSITY OF SOUTHERN CALIFORNIA, priority 2007, published 2010)
“Also recorded” adds a separate entry of the source.

Tests used:
colon cancer cells = conditions: by lowering c-FLIP expression; cited from earlier work
Bcl-xL = Bcl-xL mRNA level in HT-29 cells; assay type: cell-based, human; conditions: MTA 1 mM, 6 hrs
Method: SAMe and MTA induce apoptosis in liver cancer cells by the mitochondrial pathway (14). […] In liver cancer cells, SAMe and MTA induced selectively expression of Bcl-xs, a pro-apoptotic protein (67). We examined whether the same occurs in HT-29 cells. After 6 hrs of MTA (1 mM) treatment, Bcl-xL mRNA level fell by 53% (47±4% of control, results are mean±SE from 4 experiments, p<0.0005). […] This makes these agents particularly attractive in targeting colon cancer cells.

c-FLIP = c-FLIP mRNA level by real-time PCR in HT-29 cells; assay type: cell-based, human; conditions: SAMe 2 mM, MTA 1 mM, 6 hrs, mean±SE
SPD syn = SPD syn expression by real-time PCR in HT-29 cells; assay type: cell-based, human
HT-29 cells [1] = experiment: Cellular SAMe and MTA levels in HT-29 cells; assay type: cell-based, human
Method: (§1) HT-29 and RKO cells were obtained from the Cell Culture Core of the USC Liver Disease Research Center and grown according to instructions provided by the American Type Culture Collection (ATCC, Rockville, Md.). Prior to treatment with growth factors, SAMe or MTA, medium was changed to 0.1% FBS overnight.
(§2) Cellular SAMe and MTA levels were measured (51) and polyamine levels were determined (52).

[2] = Tolerability of oral SAMe and MTA in mice; assay type: in vivo; conditions: oral in drinking water, 6 days; weight gain and water consumption similar to controls
Source text: SAMe and MTA were made fresh daily. The amount of water intake, body weight, and animal behavior were closely monitored. After 6 days, animals were sacrificed, intestine was cut open along the longitudinal axis, and mucosa was stripped from the intestine (46). Mucosa was weighed and a portion processed for SAMe measurement as described below, the rest snap frozen for subsequent RNA extraction.

NCM460 cells = experiment: Toxicity and apoptosis in NCM460 normal colonic epithelial cells; assay type: cell-based, human
Method: In these experiments the total treatment duration was limited to 16 hrs to avoid the apoptotic effect. […] Apoptosis was measured by Hoechst staining or Annexin V and propidium iodide staining on flow cytometry.

MAT2A [3] = experiment: MAT2A expression in NCM460 cells; assay type: cell-based, human; conditions: 5 mM SAMe or 1 mM MTA, 6 hrs
Method: (§3) Total RNA was isolated by the EZgeno total RNA isolation kit (Genemega, San Giego, Calif.), and subjected to reverse transcription (RT) by using M-MLV Reverse transcriptase (Invitrogen). 2 μl of RT product was subjected to quantitative real-time PCR analysis. The primers and TaqMan probes for MAT2A, MAT2β and Universal PCR Master Mix were purchased from ABI (Foster City, Calif.). Hypoxanthine phosphoribosyl-transferase 1 (HPRT1) and ubiquitin C (UBC) were used as housekeeping genes (48). The thermal profile consisted of 1 cycle at 95° C. for 15 minutes followed by 40 cycles at 95° C. for 15 seconds and at 60° C. for 1 minute. The expression of MAT2A and MAT2β was checked by normalizing the Ct of MAT2A and MAT2β to that of the control housekeeping gene (HPRT1 or UBC) (49). The delta Ct obtained was used to find the relative expression of MAT genes according to the formula: Relative expression=2·^ΔCt, where ΔCt=ΔCt of MAT genes in colon cancer or treated cells—ΔCt of MAT genes in normal colon or control cells.
NCM460 cell line was originally established in 1996 as the first non-malignant colonic epithelial cell line derived from the transverse colon (43). When first developed, cells formed both monolayer and in suspension, express villin and cytokeratin staining (43). […] The NCM460 cells in monolayer have features of transverse colon crypt cells (69). […]

MAT2A [4] = experiment: Intestinal MAT2A expression in mice given SAMe or MTA in drinking water; assay type: in vivo
Method: FIG. 30. Effects of oral SAMe and MTA on colonic mRNA levels of MAT2A, MAT2 β, and cFLIPL. Mice were fed SAMe (150 to 450 mg/kg/d) or MTA (75 or 150 mg/kg/d) in drinking water for 6 days. Colonic mucosa was scrapped off and gene expression measured by real-time PCR.
Three-month old male C57/B6 mice were fed ad libitum a standard diet (Harland Tekiad irradiated mouse diet 7912, Madison, Wis.), caged individually and had free access to water supplemented with SAMe ([…]), MTA (75 mg/kg/d), phosphate buffered saline (vehicle for SAMe) or DMSO (0.2%, vehicle for MTA) for 6 days. SAMe and MTA were made fresh daily. The amount of water intake, body weight, and animal behavior were closely monitored. After 6 days, animals were sacrificed, intestine was cut open along the longitudinal axis, and mucosa was stripped from the intestine (46). Mucosa was weighed and a portion processed for SAMe measurement as described below, the rest snap frozen for subsequent RNA extraction.
as §3

MAT2A [5] = experiment: MAT2A mRNA levels by real-time PCR in HT-29 cells; assay type: cell-based, human
Method: as §1
RNA interference (RNAi) experiments were performed using Lipofectamine RNAiMax (Invitrogen) according to the manufacturer's instructions. Small interfering RNA (siRNA) oligonucleotides for MAT2A and scrambled siRNA were synthesized by the USC Norris Comprehensive Cancer Center Microchemical Core Laboratory, and annealed to form duplexes. Stealth RNAi for MAT2A and Stealth RNAi negative control duplexes were synthesized by Invitrogen (Carlsbad, Calif.). The following siRNA sequences were used: si-MAT2A #1, 5′-[…]-3′ (sense) and 5′-[…]-3′ (antisense); si-control with scrambled sequence (negative control siRNA having no perfect matches to known human genes), 5′-[…]dTdT-3′ (sense) and 5% […]dTdT-3′ (antisense); stealth RNAi-MAT2A #5, 5′-[…]-3′ (sense) and 5′-[…]-3′ (antisense). […]
as §3

[6] = system: ornithine decarboxylase (ODC); experiment: ODC expression by real-time PCR in HT-29 cells; assay type: cell-based, human
[7] = system: spermine synthase (SPM syn); experiment: SPM syn expression by real-time PCR in HT-29 cells; assay type: cell-based, human
[8] = Stability of SAMe and MTA in culture medium without cells and in water; assay type: physicochemical; conditions: culture medium at 37° C., MTA 1 mM
Method: FIG. 12. […] SAMe (A) and MTA (B) levels were measured in culture medium without cells with starting SAMe concentrations ranging from 1 to 5 mM and MTA concentration at 1 mM.
To test whether the mitogens-induce increase in. MAT2A is to provide increased SAMe necessary for polyamine synthesis in growing cells, SAMe and polyamine levels were measured following treatment of HT-29 cells with mitogens.

MAT2β [9] = experiment: Colonic MAT2β mRNA in mice fed SAMe or MTA; assay type: in vivo; conditions: 75 mg/kg/d MTA, 6 days
Method: FIG. 30. Effects of oral SAMe and MTA on colonic mRNA levels of MAT2A, MAT2 β, and […]. Mice were fed SAMe (150 to 450 mg/kg/d) or MTA (75 or 150 mg/kg/d) in drinking water for 6 days. Colonic mucosa was scrapped off and gene expression measured by real-time PCR.

MAT2β [10] = experiment: MAT2β (total, V1, V2) mRNA levels by real-time PCR in RKO cells; assay type: cell-based, human; conditions: growth factor 100 ng/ml
Method: as §1
as §3, with “The delta Ct obtained was used to find the relative expression of MAT genes according to the formula: Relative expression=2·^ΔCt, where ΔCt=ΔCt of MAT genes in colon cancer or treated cells—ΔCt of MAT genes in normal colon or control cells.” left out
To better understand functional differences between the two MAT2β variants, we created vectors expressing either V1 or V2 using the mammalian expression vector pcDNA3.1D/V5-His/TOPO vector (Invitrogen). […] Cell growth was measured by 3H-thymidine incorporation into DNA. […]

MAT2A [11] = experiment: MAT2A mRNA levels by real-time PCR in RKO cells; assay type: cell-based, human; conditions: RKO cells, growth factor 100 ng/ml
Method: as §1
RNA interference (RNAi) experiments were performed using Lipofectamine RNAiMax (Invitrogen) according to the manufacturer's instructions. Small interfering RNA (siRNA) oligonucleotides for MAT2A and scrambled siRNA were synthesized by the USC Norris Comprehensive Cancer Center Microchemical Core Laboratory, and annealed to form duplexes. Stealth RNAi for MAT2A and Stealth RNAi negative control duplexes were synthesized by Invitrogen (Carlsbad, Calif.). The following siRNA sequences were used: si-MAT2A #1, 5′-[…]-3′ (sense) and 5′-[…]-3′ (antisense); si-control with scrambled sequence (negative control siRNA having no perfect matches to known human genes), 5′-[…]dTdT-3′ (sense) and 5% […]dTdT-3′ (antisense); stealth RNAi-MAT2A #5, 5′-[…]-3′ (sense) and 5′-[…]-3′ (antisense). Transfection was allowed to proceed 72 hours before collection for different assays.
as §3

HT-29 cells [12] = experiment: Polyamine levels in HT-29 cells; assay type: cell-based, human; conditions: 6 hrs, mitogen 100 ng/ml
Method: as §1, §2

MAT2β [13] = experiment: MAT2β mRNA levels by real-time PCR in HT-29 cells; assay type: cell-based, human; conditions: HT29 cells, growth factor 100 ng/ml
Method: as §1, §3

[14] = 75 mg/kg/d in drinking water, six days

O=c1[nH]cc(F)c(=O)[nH]1 [5-FU, 5-fluorouracil]
TRAIL-induced apoptosis (colon cancer cells): sensitize colon cancer cells to TRAIL-induced apoptosis

CSC[C@H]1O[C@@H](n2cnc3c(N)ncnc32)[C@H](O)[C@@H]1O [MTA, methylthioadenosine]
fall of Bcl-xL mRNA level (Bcl-xL): 53%
Bcl-xL mRNA level (Bcl-xL; mean±SE from 4 experiments): 47±4 % of control
c-FLIP mRNA level (c-FLIP): 47±4 % of control
lowering of spermidine synthase mRNA level (SPD syn; MTA treatment for 6 hrs): 30%
MTA level (HT-29 cells [1]; 6 hrs, MTA 1 mM): 0.652 ± 0.123 nmol/mg protein
SAMe level (HT-29 cells [1]; 6 hrs, MTA 1 mM): 0.81 ± 0.09 nmol/mg protein
MTA level (HT-29 cells [1]; 16 hrs, MTA 1 mM): 0.689 ± 0.108 nmol/mg protein
SAMe level (HT-29 cells [1]; 16 hrs, MTA 1 mM): 0.54 ± 0.01 nmol/mg protein
tolerability / toxicity [2]: well tolerated; also recorded: no apparent toxicity
toxicity in NCM460 cells (NCM460 cells; SAMe 0.2 to 2 mM, MTA 0.2 to 5 mM): did not cause any toxicity
apoptosis in NCM460 cells (NCM460 cells; SAMe up to 2 mM, MTA up to 5 mM): do not cause apoptosis
reduction of MAT2A expression (MAT2A [3]): 40%
MAT2A expression, colon (MAT2A [4]; [14]): 87 ± 20 % of control MAT2A mRNA levels
MAT2A expression, proximal small intestine (MAT2A [4]; [14]): 82 ± 2 % of control MAT2A mRNA levels
inhibition in colonic MAT2A mRNA level (MAT2A [4]; MTA 75 mg/kg/d, 6 days): 85%
decrease of MAT2A expression in proximal small intestine (MAT2A [4]; SAMe 150 mg/kg/d, MTA 75 mg/kg/d, six days): 20%
reduction of baseline expression of MAT2A (MAT2A [5]; SAMe 5 mM or MTA 1 mM, 6 hrs, HT29 cells): 60%
lowering of ornithine decarboxylase (ODC) mRNA level ([6]; MTA treatment for 6 hrs): 30%
lowering of spermine synthase mRNA level ([7]; MTA treatment for 6 hrs): 30%
stability [8]: highly stable; also recorded: no change in 24 hrs
inhibition of MAT2β expression (MAT2β [9]): 60%

Leptin: growth factor implicated in colon cancer growth and invasion
SPD syn expression (SPD syn; 6 hrs, mitogen 100 ng/ml): 2.3 ± 0.25 fold of control
MTA level (HT-29 cells [1]; 6 hrs, mitogen 100 ng/ml): 0.058 ± 0.010 nmol/mg protein
SAMe level (HT-29 cells [1]; 6 hrs, mitogen 100 ng/ml): 0.48 ± 0.04 nmol/mg protein
MTA level (HT-29 cells [1]; 16 hrs, mitogen 100 ng/ml): 0.064 ± 0.015 nmol/mg protein
SAMe level (HT-29 cells [1]; 16 hrs, mitogen 100 ng/ml): 0.63 ± 0.02 nmol/mg protein
MAT2β expression after growth factor (MAT2β [10]): not affected
MAT2A mRNA levels after growth factor (MAT2A [11]): near doubling
MAT2A mRNA levels after growth factor (MAT2A [5]; HT-29 cells, growth factor 100 ng/ml): near doubling
ODC expression ([6]; 6 hrs, mitogen 100 ng/ml): 1.6 ± 0.09 fold of control
SPM syn expression ([7]; 6 hrs, mitogen 100 ng/ml): 1.0 ± 0.05 fold of control
Putrescine (HT-29 cells [12]): 0.27 ± 0.02 nmol/mg protein
Spermidine (HT-29 cells [12]): 2.62 ± 0.02 nmol/mg protein
Spermine (HT-29 cells [12]): 14.62 ± 2.70 nmol/mg protein
MAT2β expression after growth factor (MAT2β [13]): not affected
